Assay results reported in patent US20250145642A1, “BICYCLIC HETEROARENES AND METHODS OF THEIR USE” (Kineta, Inc., priority 2021, published 2025).
Counter-ions that a name gives are not always drawn.

These compounds were tested against full-length human PIKFYVE (N-terminal GST-fusion) (Homo sapiens (Human), UniProt Q9Y2I7, L932S/Q1183K/Q995L/S1033A/S696N/T998S) (assay: PIKfyve biochemical assay (ADP-Glo Kinase assay, Carna Biosciences)). Conditions: ADP-Glo, full-length human GST-PIKFYVE, 10 μM to 3 nM; read-out: hPIKfyve IC50.
Sequence of full-length human PIKFYVE (N-terminal GST-fusion) (Q9Y2I7 whole entry S696N/L932S/Q995L/T998S/S1033A/Q1183K, the tested form may be a part): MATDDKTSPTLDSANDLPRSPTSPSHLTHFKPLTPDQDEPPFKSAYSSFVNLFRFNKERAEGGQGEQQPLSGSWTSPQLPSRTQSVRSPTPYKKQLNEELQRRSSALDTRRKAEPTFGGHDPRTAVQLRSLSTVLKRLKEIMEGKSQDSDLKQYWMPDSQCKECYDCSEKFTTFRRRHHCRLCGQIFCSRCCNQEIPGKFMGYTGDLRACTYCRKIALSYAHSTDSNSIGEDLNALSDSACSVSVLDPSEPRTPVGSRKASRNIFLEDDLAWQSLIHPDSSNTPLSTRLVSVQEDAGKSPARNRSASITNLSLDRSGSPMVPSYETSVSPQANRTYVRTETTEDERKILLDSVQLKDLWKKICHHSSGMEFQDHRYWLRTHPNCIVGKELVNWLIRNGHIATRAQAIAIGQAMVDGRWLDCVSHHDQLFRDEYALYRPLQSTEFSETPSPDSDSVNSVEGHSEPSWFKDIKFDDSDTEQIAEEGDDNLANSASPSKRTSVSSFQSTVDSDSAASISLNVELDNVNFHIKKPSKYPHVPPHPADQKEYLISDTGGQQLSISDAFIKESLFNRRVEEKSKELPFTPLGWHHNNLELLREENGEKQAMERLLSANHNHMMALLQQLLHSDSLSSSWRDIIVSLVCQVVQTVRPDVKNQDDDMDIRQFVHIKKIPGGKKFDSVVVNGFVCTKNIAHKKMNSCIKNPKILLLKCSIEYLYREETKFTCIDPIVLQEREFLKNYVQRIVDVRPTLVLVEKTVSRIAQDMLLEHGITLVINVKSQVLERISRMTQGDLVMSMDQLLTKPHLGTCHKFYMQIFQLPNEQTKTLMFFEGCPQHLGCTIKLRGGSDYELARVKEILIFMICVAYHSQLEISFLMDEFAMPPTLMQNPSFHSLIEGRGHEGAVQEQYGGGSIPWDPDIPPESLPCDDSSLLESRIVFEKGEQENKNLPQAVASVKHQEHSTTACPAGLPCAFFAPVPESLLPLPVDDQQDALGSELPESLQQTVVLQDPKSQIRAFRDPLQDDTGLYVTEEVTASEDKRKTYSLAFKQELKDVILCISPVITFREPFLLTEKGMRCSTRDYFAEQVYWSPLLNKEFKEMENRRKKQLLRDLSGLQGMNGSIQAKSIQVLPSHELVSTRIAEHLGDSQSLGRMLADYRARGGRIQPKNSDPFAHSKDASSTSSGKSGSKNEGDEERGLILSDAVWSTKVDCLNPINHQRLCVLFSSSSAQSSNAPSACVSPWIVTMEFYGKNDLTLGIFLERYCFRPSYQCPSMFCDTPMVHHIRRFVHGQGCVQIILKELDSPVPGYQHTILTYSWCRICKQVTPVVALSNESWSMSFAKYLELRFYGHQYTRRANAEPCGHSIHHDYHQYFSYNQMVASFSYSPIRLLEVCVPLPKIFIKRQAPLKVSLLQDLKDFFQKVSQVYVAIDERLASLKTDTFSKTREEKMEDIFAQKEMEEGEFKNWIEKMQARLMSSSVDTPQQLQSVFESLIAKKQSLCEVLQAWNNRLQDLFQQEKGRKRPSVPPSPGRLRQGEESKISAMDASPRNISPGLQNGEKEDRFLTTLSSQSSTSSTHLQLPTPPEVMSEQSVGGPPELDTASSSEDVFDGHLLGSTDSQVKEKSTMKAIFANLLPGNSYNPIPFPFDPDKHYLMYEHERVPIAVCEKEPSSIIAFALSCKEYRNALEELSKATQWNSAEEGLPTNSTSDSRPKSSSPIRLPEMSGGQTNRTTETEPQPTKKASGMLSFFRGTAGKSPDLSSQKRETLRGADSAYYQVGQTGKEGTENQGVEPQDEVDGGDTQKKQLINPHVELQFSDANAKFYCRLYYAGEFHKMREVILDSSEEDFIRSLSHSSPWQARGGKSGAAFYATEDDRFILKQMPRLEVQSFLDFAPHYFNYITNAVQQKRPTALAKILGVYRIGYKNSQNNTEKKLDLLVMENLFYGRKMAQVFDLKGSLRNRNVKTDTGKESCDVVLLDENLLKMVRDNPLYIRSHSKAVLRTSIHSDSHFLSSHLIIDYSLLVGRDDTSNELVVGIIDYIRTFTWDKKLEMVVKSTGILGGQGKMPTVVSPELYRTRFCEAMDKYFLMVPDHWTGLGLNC
Outline: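 Baculovirus-expressed, glutathione-purified GST-tagged full-length human PIKFYVE (S696N/L932S/Q995L/T998S/S1033A/Q1183K) reacted with substrate and ATP in 50 mM MOPS, 1 mM DTT, pH 7.2, 1 h at room temperature. ADP formed read by ADP-Glo luminescence.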

First: COc1cccc(C#Cc2nc(N3CCOCC3)nc3c2CCN3c2cccnc2)c1 [Compound 85, 4-(4-((3-methoxyphenyl)ethynyl)-7-(pyridin-3-yl)-6,7-dihydro-5H-pyrrolo[2,3-d]pyrimidin-2-yl)morpholine]
Second: Fc1cccc(N2CCc3c(Oc4cccnc4)nc(N4CCOCC4)nc32)c1 [Compound 56, 4-(7-(3-fluorophenyl)-4-(pyridin-3-yloxy)-6,7-dihydro-5H-pyrrolo[2,3-d]pyrimidin-2-yl)morpholine]
The IC50 of the first is higher: 100 to 1000 nM for the first, 10 to 100 nM for the second. The second is the more potent here.

First: CC(C)(C)OC(=O)N1CCC(c2nc(N3CCOCC3)nc3c2CCN3c2ccccc2)CC1 [Compound 110, tert-butyl 4-(2-morpholino-7-phenyl-6,7-dihydro-5H-pyrrolo[2,3-d]pyrimidin-4-yl)piperidine-1-carboxylate]
Second: Cc1cccc(N2C(=O)Cc3c(OCc4cccnc4)nc(N4CCOCC4)nc32)c1 [Compound 129, 2-morpholino-4-(pyridin-3-ylmethoxy)-7-m-tolyl-5H-pyrrolo[2,3-d]pyrimidin-6(7H)-one]
The IC50 of the first is lower: 10 to 100 nM for the first, 100 to 1000 nM for the second. The first is the more potent here.

First: c1ccc(-n2ccc(N3CCc4c(Oc5cccnc5)nc(N5CCOCC5)nc43)n2)cc1 [Compound 70, 4-(7-(1-phenyl-1H-pyrazol-3-yl)-4-(pyridin-3-yloxy)-6,7-dihydro-5H-pyrrolo[2,3-d]pyrimidin-2-yl)morpholine]
Second: COc1cccc(-c2c[nH]c3c(-c4ccncc4)nc(N4CCOCC4)nc23)n1 [Compound 139, 4-(7-(6-methoxypyridin-2-yl)-4-(pyridin-4-yl)-5H-pyrrolo[3,2-d]pyrimidin-2-yl)morpholine]
The IC50 of the first is higher: 1000 to 10000 nM for the first, 10 to 100 nM for the second.

c1cncc(N2CCc3c(OCC4CCNC4)nc(N4CCOCC4)nc32)c1 (stereo not shown) [Compound 34, 4-(7-(pyridin-3-yl)-4-(pyrrolidin-3-ylmethoxy)-6,7-dihydro-5H-pyrrolo[2,3-d]pyrimidin-2-yl)morpholine] and c1ccc(N2CCc3c(-c4ccccn4)nc(N4CCOCC4)nc32)cc1 [Compound 90, 4-(7-phenyl-4-(pyridin-2-yl)-6,7-dihydro-5H-pyrrolo[2,3-d]pyrimidin-2-yl)morpholine] fall in the same range of IC50: 100 to 1000 nM for the first, 100 to 1000 nM for the second.

First: c1ccc(-c2nccc(-c3nc(N4CCOCC4)nc4c3CCN4c3cccnc3)n2)cc1 [Compound 124, 4-(4-(2-phenylpyrimidin-4-yl)-7-(pyridin-3-yl)-6,7-dihydro-5H-pyrrolo[2,3-d]pyrimidin-2-yl)morpholine hydrochloride]
Second: CC(C)(O)COc1nc(N2CCOCC2)nc2c1CCN2c1cccnc1 [Compound 19, 2-methyl-1-(2-morpholino-7-(pyridin-3-yl)-6,7-dihydro-5H-pyrrolo[2,3-d]pyrimidin-4-yloxy)propan-2-ol]
The IC50 of the first is lower: 10 to 100 nM for the first, 100 to 1000 nM for the second. The first is the more potent here.

Compared with c1cncc(N2CCc3c(OCCC4CCCO4)nc(N4CCOCC4)nc32)c1 (stereo not shown) [Compound 31, 4-(7-(pyridin-3-yl)-4-(2-(tetrahydrofuran-2-yl)ethoxy)-6,7-dihydro-5H-pyrrolo[2,3-d]pyrimidin-2-yl)morpholine], c1ccc(-n2ncc3c(N4CCOCC4)nc(OCc4cccnc4)nc32)cc1 [Compound 131, 4-(1-phenyl-6-(pyridin-3-ylmethoxy)-1H-pyrazolo[3,4-d]pyrimidin-4-yl)morpholine] is higher in IC50: 10 to 100 nM for the first, 1000 to 10000 nM for the second. The first is the more potent here.

Compared with c1ccc(-c2nccc(N3CCc4c(Oc5cccnc5)nc(N5CCOCC5)nc43)n2)cc1 [Compound 74, 4-(7-(2-phenylpyrimidin-4-yl)-4-(pyridin-3-yloxy)-6,7-dihydro-5H-pyrrolo[2,3-d]pyrimidin-2-yl)morpholine], c1ccc(N2CCc3c(OCc4cccnc4)nc(N4CCOCC4)nc32)cc1 [Compound 25, 4-(7-phenyl-4-(pyridin-3-ylmethoxy)-6,7-dihydro-5H-pyrrolo[2,3-d]pyrimidin-2-yl)morpholine] is lower in IC50: 1000 to 10000 nM for the first, 10 to 100 nM for the second.

Oc1ccc[n+](Cc2nc(N3CCOCC3)nc3c2CCN3c2ccccc2)c1 [Compound 60, 5-hydroxy-1-((2-morpholino-7-phenyl-6,7-dihydro-5H-pyrrolo[2,3-d]pyrimidin-4-yl)methyl)pyridin-1-ium-3-ylium] and c1ccc(N2CCc3c(OCC4CCCO4)nc(N4CCOCC4)nc32)cc1 (stereo not shown) [Compound 29, 4-(7-phenyl-4-((tetrahydrofuran-2-yl)methoxy)-6,7-dihydro-5H-pyrrolo[2,3-d]pyrimidin-2-yl)morpholine] fall in the same range of IC50: 100 to 1000 nM for the first, 100 to 1000 nM for the second.

First: N#Cc1ccc(N2CCc3c(OCc4cccnc4)nc(N4CCOCC4)nc32)cc1 [Compound 7, 4-(2-morpholino-4-(pyridin-3-ylmethoxy)-5H-pyrrolo[2,3-d]pyrimidin-7(6H)-yl)benzonitrile]
Second: c1ccc(-n2ncc(N3CCc4c(Oc5cccnc5)nc(N5CCOCC5)nc43)n2)cc1 [Compound 68, 4-(7-(2-phenyl-2H-1,2,3-triazol-4-yl)-4-(pyridin-3-yloxy)-6,7-dihydro-5H-pyrrolo[2,3-d]pyrimidin-2-yl)morpholine]
The IC50 of the first is lower: 10 to 100 nM for the first, 1000 to 10000 nM for the second.

Compared with Cc1cccc(CN2CCc3c(Cl)nc(N4CCOCC4)nc32)c1 [Compound 41, 4-(4-chloro-7-(3-methylbenzyl)-6,7-dihydro-5H-pyrrolo[2,3-d]pyrimidin-2-yl)morpholine], c1ccc(Oc2nc(N3CCOCC3)nc3c2CCN3c2cccnc2)nc1 [Compound 58] is lower in IC50: over 10000 nM for the first, 100 to 1000 nM for the second.

First: CN1CCCC(COc2nc(N3CCOCC3)nc3c2CCN3c2cnn(C)c2)C1 (stereo not shown) [Compound 18]
Second: c1ccc(-n2cc(N3CCc4c(Oc5cccnc5)nc(N5CCOCC5)nc43)nn2)cc1 [Compound 69, 4-(7-(1-phenyl-1H-1,2,3-triazol-4-yl)-4-(pyridin-3-yloxy)-6,7-dihydro-5H-pyrrolo[2,3-d]pyrimidin-2-yl)morpholine]
The IC50 of the first is higher: 1000 to 10000 nM for the first, 10 to 100 nM for the second.

First: CC(C)(C)OC(=O)N1CC(c2nc(N3CCOCC3)nc3c2CCN3c2ccccc2)C1 [Compound 113, tert-butyl 3-(2-morpholino-7-phenyl-6,7-dihydro-5H-pyrrolo[2,3-d]pyrimidin-4-yl)azetidine-1-carboxylate]
Second: c1ccc(N2CCc3c(C4CCOCC4)nc(N4CCOCC4)nc32)cc1 [Compound 86, 4-(7-phenyl-4-(tetrahydro-2H-pyran-4-yl)-6,7-dihydro-5H-pyrrolo[2,3-d]pyrimidin-2-yl)morpholine]
The IC50 of the first is lower: under 10 nM for the first, 100 to 1000 nM for the second. The first is the more potent here.

First: c1cc(N2CCc3c(-c4ccoc4)nc(N4CCOCC4)nc32)cnn1 [Compound 96, 4-(4-(furan-3-yl)-7-(pyridazin-4-yl)-6,7-dihydro-5H-pyrrolo[2,3-d]pyrimidin-2-yl)morpholine]
Second: Cc1cccc(/C=N/Nc2nc(N3CCOCC3)nc3c2CCN3c2cccnc2)c1 [Compound 82, (E)-4-(4-(2-(3-methylbenzylidene)hydrazineyl)-7-(pyridin-3-yl)-6,7-dihydro-6H-pyrrolo[2,3-d]pyrimidin-2-yl)morpholine]
The IC50 of the first is higher: 10 to 100 nM for the first, under 10 nM for the second.

First: 4-(6-methyl-7-(pyridin-4-yl)-4-(tetrahydrofuran-3-yl)-6,7-dihydro-5H-pyrrolo[2,3-d]pyrimidin-2-yl)morpholine [Compound 98]
Second: Fc1cccc(N2CCc3c(C4CCOC4)nc(N4CCOCC4)nc32)c1 (stereo not shown) [Compound 94, 4-(7-(3-fluorophenyl)-4-(tetrahydro-furan-3-yl)-6,7-dihydro-5H-pyrrolo[2,3-d]pyrimidin-2-yl)morpholine]
The IC50 of the first is lower: 10 to 100 nM for the first, 100 to 1000 nM for the second.

c1cncc(COc2nc(N3CCOCC3)nc3c2CCN3C2CCNCC2)c1 [Compound 6, 4-(7-(piperidin-4-yl)-4-(pyridin-3-ylmethoxy)-6,7-dihydro-5H-pyrrolo[2,3-d]pyrimidin-2-yl)morpholine] and CN1CCCC(c2nc(N3CCOCC3)nc3c2ncn3-c2cccnc2)C1 (stereo not shown) [Compound 127, 4-(6-(1-methylpiperidin-3-yl)-9-(pyridin-3-yl)-9H-purin-2-yl)morpholine] cannot be ordered by IC50: over 10000 nM for the first, over 10000 nM for the second.

First: c1ccc(-c2cncc(Oc3nc(N4CCOCC4)nc4c3CCN4c3cccnc3)c2)cc1 [Compound 75, 4-(4-((5-phenylpyridin-3-yl)oxy)-7-(pyridin-3-yl)-6,7-dihydro-5H-pyrrolo[2,3-d]pyrimidin-2-yl)morpholine]
Second: O=c1ccccn1-c1nc(N2CCOCC2)nc2c1CCN2c1ccccc1 [Compound 50, 1-(2-morpholino-7-phenyl-6,7-dihydro-5H-pyrrolo[2,3-d]pyrimidin-4-yl)pyridin-2(1H)-one]
The IC50 of the first is lower: 10 to 100 nM for the first, 100 to 1000 nM for the second.

Compared with c1cc(-c2c[nH]c3c(OCc4cccnn4)nc(N4CCOCC4)nc23)cc(-n2cccn2)c1 [Compound 150, 4-(7-(3-(1H-pyrazol-1-yl)phenyl)-4-(pyridazin-3-ylmethoxy)-6H-pyrrolo[3,2-d]pyrimidin-2-yl)morpholine], c1cc(-c2nc(N3CCOCC3)nc3c2CCN3C2CCOCC2)ccn1 [Compound 95, 4-(4-(pyridin-4-yl)-7-(tetrahydro-2H-pyran-4-yl)-6,7-dihydro-5H-pyrrolo[2,3-d]pyrimidin-2-yl)morpholine] is higher in IC50: 10 to 100 nM for the first, 100 to 1000 nM for the second. The first is the more potent here.

CC(C)(C)OC(=O)N1CCC(c2nc(N3CCOCC3)nc3c2CCN3c2cccnc2)CC1 [Compound 107, tert-butyl 4-(2-morpholino-7-(pyridin-3-yl)-6,7-dihydro-5H-pyrrolo[2,3-d]pyrimidin-4-yl)piperidine-1-carboxylate] and c1cc(-c2nc(N3CCOCC3)nc3c(-c4nccc(C5CC5)n4)c[nH]c23)ccn1 [Compound 138, 4-(7-(4-cyclopropylpyrimidin-2-yl)-4-(pyridin-4-yl)-5H-pyrrolo[3,2-d]pyrimidin-2-yl)morpholine] fall in the same range of IC50: 100 to 1000 nM for the first, 100 to 1000 nM for the second.

For Cn1nccc1-c1c[nH]c2c(-c3ccncc3)nc(N3CCOCC3)nc12 [Compound 141, 4-(7-(1-methyl-1H-pyrazol-5-yl)-4-(pyridin-4-yl)-5H-pyrrolo[3,2-d]pyrimidin-2-yl)morpholine], the IC50 was 10 to 100 nM.

Same assay, conditions: values plotted in FIG. 7; read-out: PIKFYVE Biochemistry (IC50)

c1ccc(-c2nc(-c3cc(N4CCOCC4)nc(OCc4ccncc4)n3)no2)cc1 and O=c1ccn(Cc2nc(N3CCOCC3)cc(-n3nccc3-c3ccccc3)n2)cc1 cannot be ordered by IC50: over 10000 nM for the first, over 10000 nM for the second.

For O=c1c(CCOc2cccnc2)cc2ncncc2n1-c1ccccc1, the IC50 was over 10000 nM.
